Results: ChEMBL document CHEMBL6178010, “XPO1-Targeting Selective Inhibitors of Transcriptional Activation Suppress Graft-versus-Host Disease” (J Med Chem, 2025)
Activity calls are given as the source filed them. The calls are words filed in the database; no cut-off is given here.

Columns and labels:
[1] = biological target: T1, Exportin-1 (Homo sapiens, UniProt O14980); assay: Covalent binding affinity to XPO1 in human Jurkat cells at 4 to 1000 nM by In-gel fluorescence analysis; type: cell-based; conditions: dose 4-1000 nM
T1 sequence (O14980 whole entry): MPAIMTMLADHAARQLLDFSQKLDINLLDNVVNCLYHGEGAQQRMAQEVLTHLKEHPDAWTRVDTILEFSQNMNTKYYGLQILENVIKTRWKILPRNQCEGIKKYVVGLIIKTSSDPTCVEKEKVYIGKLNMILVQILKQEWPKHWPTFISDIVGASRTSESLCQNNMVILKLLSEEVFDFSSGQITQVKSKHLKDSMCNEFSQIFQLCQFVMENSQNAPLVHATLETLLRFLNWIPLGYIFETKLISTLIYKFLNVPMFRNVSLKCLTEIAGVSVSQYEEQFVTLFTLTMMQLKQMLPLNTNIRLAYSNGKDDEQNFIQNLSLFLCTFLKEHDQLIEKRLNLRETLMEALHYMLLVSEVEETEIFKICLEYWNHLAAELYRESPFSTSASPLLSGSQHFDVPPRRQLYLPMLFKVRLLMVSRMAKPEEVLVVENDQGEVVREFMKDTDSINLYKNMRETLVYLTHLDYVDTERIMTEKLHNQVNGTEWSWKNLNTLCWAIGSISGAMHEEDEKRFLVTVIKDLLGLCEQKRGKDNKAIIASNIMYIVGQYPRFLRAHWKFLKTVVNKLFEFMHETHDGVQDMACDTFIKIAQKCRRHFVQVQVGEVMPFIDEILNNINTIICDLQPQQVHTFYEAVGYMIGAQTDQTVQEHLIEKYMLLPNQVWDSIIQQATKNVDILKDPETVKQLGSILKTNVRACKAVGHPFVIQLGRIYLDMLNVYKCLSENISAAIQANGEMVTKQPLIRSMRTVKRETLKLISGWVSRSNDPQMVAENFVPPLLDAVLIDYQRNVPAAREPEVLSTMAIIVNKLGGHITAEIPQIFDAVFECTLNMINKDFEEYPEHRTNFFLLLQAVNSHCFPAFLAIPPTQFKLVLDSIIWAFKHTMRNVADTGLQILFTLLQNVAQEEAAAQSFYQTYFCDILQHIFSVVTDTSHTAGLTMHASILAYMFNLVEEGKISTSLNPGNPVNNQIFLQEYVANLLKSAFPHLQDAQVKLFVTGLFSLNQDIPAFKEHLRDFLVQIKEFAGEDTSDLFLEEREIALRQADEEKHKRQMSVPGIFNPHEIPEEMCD

[2] = biological target: Exportin-1 (Mus musculus) (UniProt Q6P5F9); assay: In vivo binding affinity to XPO1 in mouse spleen at 1 to 9 mg/kg, ip qd administered for 5 days by Western blot analysis; type: functional, organism-based; conditions: dose 1-9 mg/kg, time 5.0 day
Exportin-1 (Mus musculus), sequence (Q6P5F9 whole entry): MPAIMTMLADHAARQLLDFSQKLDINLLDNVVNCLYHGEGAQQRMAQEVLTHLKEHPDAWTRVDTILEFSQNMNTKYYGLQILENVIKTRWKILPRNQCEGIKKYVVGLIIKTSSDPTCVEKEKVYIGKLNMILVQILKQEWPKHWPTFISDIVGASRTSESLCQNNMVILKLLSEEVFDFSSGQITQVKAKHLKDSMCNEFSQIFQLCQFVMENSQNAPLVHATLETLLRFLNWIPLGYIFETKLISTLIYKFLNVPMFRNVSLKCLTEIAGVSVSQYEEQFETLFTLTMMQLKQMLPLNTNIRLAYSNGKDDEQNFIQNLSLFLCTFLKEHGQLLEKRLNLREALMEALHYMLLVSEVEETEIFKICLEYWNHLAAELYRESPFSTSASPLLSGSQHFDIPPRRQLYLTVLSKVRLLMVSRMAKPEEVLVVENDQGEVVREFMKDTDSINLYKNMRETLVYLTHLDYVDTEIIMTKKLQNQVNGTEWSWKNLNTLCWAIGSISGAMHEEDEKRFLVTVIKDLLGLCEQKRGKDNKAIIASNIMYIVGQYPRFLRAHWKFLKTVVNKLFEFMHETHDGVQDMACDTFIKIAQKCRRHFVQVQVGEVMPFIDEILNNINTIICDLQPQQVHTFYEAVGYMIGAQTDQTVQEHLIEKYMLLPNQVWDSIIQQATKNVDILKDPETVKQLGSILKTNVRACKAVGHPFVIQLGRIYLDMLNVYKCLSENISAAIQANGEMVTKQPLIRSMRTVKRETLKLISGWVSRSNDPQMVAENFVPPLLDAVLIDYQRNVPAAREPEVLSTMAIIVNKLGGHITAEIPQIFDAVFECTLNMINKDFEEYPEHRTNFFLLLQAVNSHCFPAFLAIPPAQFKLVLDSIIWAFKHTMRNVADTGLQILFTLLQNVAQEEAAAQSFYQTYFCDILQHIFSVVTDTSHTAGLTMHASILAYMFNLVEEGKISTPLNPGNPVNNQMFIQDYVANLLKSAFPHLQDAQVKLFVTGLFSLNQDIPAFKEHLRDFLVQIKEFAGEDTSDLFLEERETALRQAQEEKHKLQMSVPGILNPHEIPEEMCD

[3] = biological target: Exportin-1 (Mus musculus) (UniProt Q6P5F9); assay: In vivo binding affinity to XPO1 in mouse liver at 1 to 9 mg/kg, ip qd administered for 5 days by Western blot analysis; type: functional, organism-based; conditions: dose 1-9 mg/kg, time 5.0 day
[4] = biological target: Exportin-1 (Mus musculus) (UniProt Q6P5F9); assay: In vivo binding affinity to XPO1 in mouse kidney at 1 to 9 mg/kg, ip qd administered for 5 days by Western blot analysis; type: functional, organism-based; conditions: dose 1-9 mg/kg, time 5.0 day
[5] = Metabolic stability in mouse liver microsome assessed as half life; type: ADME; conditions: liver microsomes
[6] = Metabolic stability in mouse liver microsome assessed as intrinsic clearance; type: ADME; conditions: liver microsomes, read-out: CLH
[7] = system: Mus musculus; assay: Suppression of T-cell activation in irradiated BALB/c mouse transplanted with bone marrow/splenic T-cells from C57BL/6 mouse assessed as downregulation of IFNG in host spleen at 10 mg/kg, ip administered daily for 7 days by RT-qPCR analysis; type: functional, organism-based; conditions: time 7.0 day
[8] = system: Mus musculus; assay: Suppression of T-cell activation in irradiated BALB/c mouse transplanted with bone marrow/splenic T-cells from C57BL/6 mouse assessed as downregulation of CSF2 in host spleen at 10 mg/kg, ip administered daily for 7 days by RT-qPCR analysis; type: functional, organism-based; conditions: time 7.0 day
[9] = system: Mus musculus; assay: Anti-inflammatory activity in irradiated BALB/c mouse transplanted with bone marrow/splenic T-cells from C57BL/6 mouse assessed as suppression of CD3 positive T-cell infiltration in host liver at 10 mg/kg, ip qd administered daily for 7 days by IHC analysis; type: functional, organism-based; conditions: time 7.0 day
[10] = Toxicity in mouse assessed as neutropenia at 10 mg/kg, ip administered daily for 5 days by CBC analysis; type: organism-based; conditions: in vivo, 120 h, time 5 day
[11] = Toxicity in mouse assessed as leukopenia at 10 mg/kg, ip administered daily for 5 days by CBC analysis; type: organism-based; conditions: in vivo, 120 h, time 5 day
[12] = Drug exposure in mouse administered intraperitoneally; type: ADME; conditions: in vivo, ip
[13] = system: Mus musculus; assay: Anti-inflammatory activity in irradiated BALB/c mouse transplanted with bone marrow/splenic T-cells from C57BL/6 mouse assessed as reduction in animal lethality at 10 mg/kg, ip administered daily measured for 8 days; type: functional, organism-based; conditions: time 8.0 day
[14] = biological target: T1, Exportin-1; assay: Inhibition of XPO1 in PMA/ionomycin-activated human Jurkat cells expressing IL-2 promoter reporter gene assessed as suppression of IL-2 transcriptional activity incubated for 6 hrs by Bright-Glo Luciferase assay; type: cell-based
[15] = system: Jurkat; assay: Cytotoxicity against human Jurkat cells assessed as suppression of cell viability incubated for 24 hrs by CellTiter-Glo assay; type: functional, cell-based
[16] = system: XPO1; assay: Selectivity ratio of EC50 for cytotoxicity against human Jurkat cells assessed as suppression of cell viability to EC50 for inhibition of XPO1 in PMA/ionomycin-activated human Jurkat cells expressing IL-2 promoter reporter gene assessed as suppression of IL-2 transcriptional activity; type: toxicity, cell-based; conditions: read-out: Ratio EC50
[17] = system: Jurkat; assay: Downregulation of IL-2 mRNA level in PMA/ionomycin-activated human Jurkat cells expressing XPO1 C528S mutant at 100 nM incubated for 6 hrs by RT-qPCR analysis; type: functional, cell-based
[18] = system: Jurkat; assay: Cytotoxicity against human Jurkat cells expressing XPO1 C528S mutant assessed as suppression of cell viability up to 10000 nM incubated for 24 hrs by CellTiter-Glo assay; type: functional, cell-based
[19] = biological target: T1, Exportin-1; assay: Inhibition of selinexor-alkyne binding to XPO1 at Cys528 in human Jurkat cells up to 10 nM pretreated for 1 hr followed by addition of selinexor-alkyne measured after 1 hr by In-gel fluorescence analysis; type: cell-based; conditions: time 2.0 hrs
[20] = biological target: T1, Exportin-1; assay: Inhibition of selinexor-alkyne binding to XPO1 at Cys528 in human Jurkat cells up to 300 nM pretreated for 1 hr followed by addition of selinexor-alkyne measured after 1 hr by In-gel fluorescence analysis; type: cell-based; conditions: time 2.0 hrs
[21] = system: Jurkat; assay: Cytotoxicity against human Jurkat cells expressing XPO1 C528S mutant assessed as suppression of cell viability up to 1000 nM incubated for 24 hrs by CellTiter-Glo assay; type: functional, cell-based
[22] = system: Mus musculus; assay: Anti-inflammatory activity in irradiated BALB/c mouse transplanted with bone marrow/splenic T-cells from C57BL/6 mouse assessed as suppression of IFNG mRNA level in host spleen administered as ip dose for 7 days by RT-qPCR analysis; type: functional, organism-based; conditions: dose 10-100 mg/kg, time 7.0 day
[23] = system: Mus musculus; assay: Anti-inflammatory activity in irradiated BALB/c mouse transplanted with bone marrow/splenic T-cells from C57BL/6 mouse assessed as suppression of CSF2 mRNA level in host spleen administered as ip dose for 7 days by RT-qPCR analysis; type: functional, organism-based; conditions: dose 10-100 mg/kg, time 7.0 day
[24] = system: Mus musculus; assay: Anti-inflammatory activity in irradiated BALB/c mouse transplanted with bone marrow/splenic T-cells from C57BL/6 mouse assessed as increase in CD3 positive CD4 positive T cells in host spleen at 1 to 10 mg/kg, ip administered for 7 days by flow cytometry analysis; type: functional, organism-based; conditions: dose 1-10 mg/kg, time 7.0 day
[25] = system: Mus musculus; assay: Anti-inflammatory activity in irradiated BALB/c mouse transplanted with bone marrow/splenic T-cells from C57BL/6 mouse assessed as decrease in CD3 positive CD8 positive T cells in host spleen at 1 to 10 mg/kg, ip administered for 7 days by flow cytometry analysis; type: functional, organism-based; conditions: dose 1-10 mg/kg, time 7.0 day
[26] = system: Mus musculus; assay: Anti-inflammatory activity in irradiated BALB/c mouse transplanted with bone marrow/splenic T-cells from C57BL/6 mouse assessed as improvement in animal survival at 3 mg/kg, ip administered daily for 21 days; type: functional, organism-based; conditions: time 21.0 day
[27] = system: Jurkat; assay: Downregulation of IL-2 mRNA level in PMA/ionomycin-activated human Jurkat cells expressing XPO1 C528S mutant at 200 nM incubated for 6 hrs by RT-qPCR analysis; type: functional, cell-based
[28] = system: Mus musculus; assay: Anti-inflammatory activity in irradiated BALB/c mouse transplanted with bone marrow/splenic T-cells from C57BL/6 mouse assessed as suppression of CCL3 mRNA level in host spleen administered as ip dose for 7 days by RT-qPCR analysis; type: functional, organism-based; conditions: dose 10-100 mg/kg, time 7.0 day
[29] = system: Mus musculus; assay: Anti-inflammatory activity in irradiated BALB/c mouse transplanted with bone marrow/splenic T-cells from C57BL/6 mouse assessed as suppression of TNF mRNA level in host spleen administered as ip dose for 7 days by RT-qPCR analysis; type: functional, organism-based; conditions: dose 10-100 mg/kg, time 7.0 day
[30] = system: Mus musculus; assay: Anti-inflammatory activity in irradiated BALB/c mouse transplanted with bone marrow/splenic T-cells from C57BL/6 mouse assessed as healthy appearance of animal at 1 to 10 mg/kg, ip administered for 7 days; type: functional, organism-based; conditions: dose 1-10 mg/kg, time 7.0 day
[31] = system: Mus musculus; assay: Anti-inflammatory activity in irradiated BALB/c mouse transplanted with bone marrow/splenic T-cells from C57BL/6 mouse assessed as active behaviour of animal at 1 to 10 mg/kg, ip administered for 7 days; type: functional, organism-based; conditions: dose 1-10 mg/kg, time 7.0 day
[32] = Toxicity in irradiated BALB/c mouse transplanted with bone marrow/splenic T-cells from C57BL/6 mouse assessed as drug tolerance at 3 mg/kg, ip administered daily for 21 days; type: organism-based; conditions: in vivo, 504 h, time 21 day
[33] = biological target: T1, Exportin-1; assay: Covalent binding affinity to XPO1 in human Jurkat cells at 0.6 to 123 nM by In-gel fluorescence analysis; type: cell-based; conditions: dose 0.6-123 nM
[34] = biological target: Exportin-1 (Mus musculus) (UniProt Q6P5F9); assay: In vivo binding affinity to XPO1 in mouse spleen at 10 mg/kg, ip qd administered for 5 days by Western blot analysis; type: functional, organism-based; conditions: time 5.0 day
[35] = biological target: Exportin-1 (Mus musculus) (UniProt Q6P5F9); assay: In vivo binding affinity to XPO1 in mouse liver at 10 mg/kg, ip qd administered for 5 days by Western blot analysis; type: functional, organism-based; conditions: time 5.0 day
[36] = biological target: Exportin-1 (Mus musculus) (UniProt Q6P5F9); assay: In vivo binding affinity to XPO1 in mouse kidney at 10 mg/kg, ip qd administered for 5 days by Western blot analysis; type: functional, organism-based; conditions: time 5.0 day
[37] = system: Jurkat; assay: Downregulation of IL-2 mRNA level in PMA/ionomycin-activated human Jurkat cells expressing XPO1 C528S mutant at 10 nM incubated for 6 hrs by RT-qPCR analysis; type: functional, cell-based
[38] = system: Jurkat; assay: Cytotoxicity against human Jurkat cells expressing XPO1 C528S mutant assessed as suppression of cell viability up to 100 nM incubated for 24 hrs by CellTiter-Glo assay; type: functional, cell-based

## C#Cc1cc2c(NN3C(=O)C=C(C)C3=O)nc(C(F)(F)F)nn2c1
[1]
  Activity: Active
[2]
  Activity: Active
[3]
  Activity: Active
[4]
  Activity: Active

## CC1=CC(=O)N(Nc2cc(C(F)(F)F)cc(C(F)(F)F)c2)C1=O
[5]
  half-life: > 60 min
[6]
  microsomal CLint: < 23 µL/min/mg
[7]
  Activity: Active; Compound Showed Stronger Effect Than Sp100030
[8]
  Activity: Active; Compound Showed Stronger Effect Than Sp100030
[9]
  Activity: Active
[10]
  Activity: Non-toxic
[11]
  Activity: Non-toxic
[12]
  Drug uptake: Active

## O=C(/C=C\n1cnc(-c2cc(C(F)(F)F)cc(C(F)(F)F)c2)n1)NNc1cnccn1 [SELINEXOR]
[10]
  Activity: Toxic
[11]
  Activity: Toxic
[13]
  Activity: inactive

## CC1=CC(=O)N(Nc2ccc(C(F)(F)F)c(N(C)C)n2)C1=O
[14]
  EC50: 8.3 nM
[15]
  EC50: 696 nM
[16]
  selectivity ratio: 83.9
[17]
  Activity: inactive
[18]
  Activity: Active
[19]
  inhibition: Active

## CC1=CC(=O)N(Nc2ccc(C(F)(F)F)c(C3CCCC3)n2)C1=O
[14]
  EC50: 12 nM
[15]
  EC50: 34 nM
[16]
  selectivity ratio: 2.8
[5]
  half-life: < 10 min
[6]
  microsomal CLint: > 139 µL/min/mg

## CC1=CC(=O)N(Nc2nc(N3CCCC3)nn3cccc23)C1=O
[14]
  EC50: 34 nM
[15]
  EC50: 240 nM
[16]
  selectivity ratio: 7.1
[17]
  Activity: inactive
[5]
  half-life: > 60 min
[6]
  microsomal CLint: < 23 µL/min/mg
[20]
  inhibition: Active
[21]
  Activity: inactive
[12]
  Drug uptake: Active

## CC1=CC(=O)N(Nc2nc(C(F)(F)F)nn3cccc23)C1=O
[14]
  EC50: 31 nM
[15]
  EC50: 270 nM
[16]
  selectivity ratio: 8.7
[5]
  half-life: > 60 min
[6]
  microsomal CLint: < 23 µL/min/mg
[7]
  Activity: Active; Compound Showed Stronger Effect Than Sp100030
[8]
  Activity: Active; Compound Showed Stronger Effect Than Sp100030
[9]
  Activity: Active
[22]
  Activity: Dose-dependent-effect
[23]
  Activity: Dose-dependent-effect
[24]
  Activity: Active
[25]
  Activity: Active
[26]
  Activity: Active
[10]
  Activity: Non-toxic
[11]
  Activity: Non-toxic
[20]
  inhibition: Active
[27]
  Activity: inactive
[21]
  Activity: inactive
[12]
  Drug uptake: Active
[28]
  Activity: Dose-dependent-effect
[29]
  Activity: Dose-dependent-effect
[30]
  Activity: Active
[31]
  Activity: Active
[32]
  Activity: Non-toxic

## C#Cc1cc(NN2C(=O)C=C(C)C2=O)cc(C(F)(F)F)c1
[33]
  Activity: Active
[34]
  Activity: Active
[35]
  Activity: Active
[36]
  Activity: Active

## CC1=CC(=O)N(Nc2ccc(C(F)(F)F)c(N3CC4CC4C3)n2)C1=O (stereo unspecified)
[14]
  EC50: 1 nM
[15]
  EC50: 30.4 nM
[16]
  selectivity ratio: 30.4
[37]
  Activity: inactive
[38]
  Activity: Active
[5]
  half-life: < 10 min
[6]
  microsomal CLint: > 139 µL/min/mg
[19]
  inhibition: Active

## COc1cccc2nc(-c3cccs3)nc(NN3C(=O)C=C(C)C3=O)c12 [AS-602868]
[14]
  EC50: 5.9 nM
[15]
  EC50: 30.2 nM
[16]
  selectivity ratio: 5.1
[5]
  half-life: < 10 min
[6]
  microsomal CLint: > 139 µL/min/mg
